Among the data in patent publication US20080194638A1, “BIOAVAILABLE FORMULATIONS OF HETEROCYCLIC COMPOUNDS” (Forest Laboratories Holdings Limited, priority 2007, published 2008) are solubility values, retold here.

Structures can show the parent of a compound that is named as a salt.

The series can be described thus: Solubility of crystalline forms. The class given is physicochemical. An excerpt: wherein R^1-R^4, P, X, Y, m, n and Ar are as defined therein. One such compound is N-(3,5-dichloropyrid-4-yl)-4-difluoromethoxy-8-methanesulfonamido-dibenzo[b,d]furan-1-carboxamide, the International nonproprietary name for which is oglemilast. The pharmacology and safety profiles for oglemilast have been described in, for example, Eur. Respir. J. (2004) 24 (Suppl 48): Abst 1391. Both US 2005/0027129 and International Publication No. WO 2006/040652 disclose methods for preparing oglemilast and pharmaceutically acceptable salts thereof, such as the sodium salt (see, e.g., Examples 30 and 31 of US publication No. 2005/0027129) and generically disclose formulations of oglemilast and the corresponding sodium salt. In these formulations, the active ingredient is present substantially in a crystalline form. […] In an attempt to increase the bioavailability of formulations containing, e.g., oglemilast, salt forms of the active ingredient have typically been used.

With `CS(=O)(=O)Nc1ccc2oc3c(OC(F)F)ccc(C(=O)Nc4c(Cl)cncc4Cl)c3c2c1` [crystalline oglemilast, N-(3,5-dichloropyrid-4-yl)-4-difluoromethoxy-8-methanesulfonamido-dibenzo[b,d]furan-1-carboxamide], the solubility result was “approximately 0.2 μg/mL”.

On to `CS(=O)(=O)Nc1ccc2oc3c(OC(F)F)ccc(C(=O)Nc4c(Cl)cncc4Cl)c3c2c1` [crystalline sodium salt of oglemilast], for which the solubility entry was “approximately 140 μg/mL”.
